Seven compounds from PubChem BioAssay (NCI) can be followed below.

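Step 1: Grow cells in 96-well plates. Step 2: Expose to compound for 48 hours at 5 concentrations. Step 3: Interpolate endpoints linearly; if unreached, use highest concentration. GI50: concentration for 50% inhibition of growth. TGI marks complete inhibition of growth.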

Test in all cases: NCI tumour cell line growth inhibition, 48 h
In assay [1] the test system is OVCAR-5 ovarian.
Assay [2] relates to HOP-62 NSCLC.
Assay [3] deals with MDA-MB-435.
In assay [4] the test system is SNB-19 CNS.
The subject of assay [5] is MCF7 breast.
The subject of assay [6] is HT29 colon.
The test system of assay [7] is NCI/ADR-RES ovarian.
For assay [8], the system named is A498 renal.
The test system of assay [9] is SR leukemia.
For assay [10], the system named is LOX IMVI melanoma.

With `COC(=O)CCc1c(/C=C2\N=C(c3ccc[nH]3)C=C2OC)[nH]c(C)c1C(=O)OCc1ccccc1`, the GI50 was 0.684 µM in assay [1]; 0.303 µM in assay [2]; 0.409 µM in assay [3]; 1.17 µM in assay [4]; 0.313 µM in assay [5]; 0.138 µM in assay [6]. Moreover, the GI50 in [7] was 0.437 µM; in assay [8] it was 0.289 µM; in assay [9], 0.185 µM; in assay [10], 0.169 µM. Further, the TGI was 9.84 µM in assay [1]; 2 µM in assay [2]; 2.25 µM in [3]; greater than 100 µM in assay [4]; 4.78 µM in assay [5]; 1.68 µM in assay [6]. The TGI amounted to 3.78 µM in assay [7], 3.37 µM in [8], 1.72 µM in assay [9] and 0.418 µM in assay [10].

`COc1ccc(-c2cc3c(N)ncnc3o2)cc1`: the GI50 is greater than 25 µM in [1]; greater than 25 µM in assay [2]; greater than 25 µM in assay [3]; greater than 25 µM in assay [4]; greater than 25 µM in assay [5]; greater than 22.7 µM in assay [6]. The GI50 in assay [7] was greater than 25 µM; in assay [8] it was 8.14 µM; in [9] it was greater than 25 µM; in assay [10], greater than 25 µM. Also, the TGI in assay [1], in assay [2], in [3], in assay [4], in assay [5] and in assay [6] was greater than 25 µM throughout. In addition, the TGI in assay [7], in assay [8], in assay [9] and in assay [10] was greater than 25 µM in each case.

For the compound `CCCCCCCCC(=O)NCCN(CCN)C(=O)CCCCCCCC`, the TGI in [1] was found to be 30.5 µM; in assay [2], 30.6 µM; in assay [3] it was 29.7 µM; in [4] it was 17.7 µM; in [5], 17.5 µM; in assay [6] it was 7.15 µM. Also, the TGI in [7] was 31.1 µM; in [8] it was 43.8 µM; in assay [9], 13.8 µM; in assay [10], 9.06 µM.

In the case of `CC(C)CC1NC(=O)C(C(C)C)NC(=O)CC(C)COC(=O)C(CC(C)C)N(C)C(=O)C(C(C)C)NC(=O)C(C(C)C)OC1=O` (stereo not given), the TGI in [1], in assay [2], in assay [3], in assay [4], in assay [5] and in [6] was greater than 50 µM in each case. Further, the TGI in [7], in assay [8], in [9] and in assay [10] was greater than 50 µM in each case.

Take `N#CC(CC(=O)O)=C(c1ccccc1)c1ccccc1`: the TGI in assay [1], in assay [2], in assay [3], in assay [4], in assay [5] and in assay [6] was greater than 100 µM in each case. Besides, the TGI in assay [7], in [8], in [9] and in assay [10] was greater than 100 µM in each case.

In the case of `COc1ccc2c(c1)C(=O)c1c-2n(CCCNCCO)c(=O)c2cc([N+](=O)[O-])ccc12`, the GI50 was less than 0.0128 µM in assay [1]; less than 0.01 µM in assay [2]; less than 0.01 µM in assay [3]; less than 0.01 µM in assay [4]; less than 0.01 µM in assay [5]; less than 0.01 µM in [6]. Besides, the GI50 in [7] was less than 0.01 µM; in assay [8] it was less than 0.015 µM; in [9], less than 0.01 µM; in assay [10], less than 0.01 µM. Besides, the TGI was found to be 0.239 µM in assay [1]; 0.145 µM in assay [2]; 1.06 µM in assay [3]; 19.9 µM in [4]; 0.0264 µM in [5]; 1.09 µM in assay [6]. The TGI was 1.68 µM in assay [7], less than 0.0482 µM in assay [8], less than 0.01 µM in [9] and 0.0905 µM in assay [10].

Turning to `NC(N)=N/N=C/c1ccc(Br)cc1`, the GI50 in assay [1] was 10.4 µM; in assay [2], 9.8 µM; in assay [3], 1.07 µM; in assay [4], 5.74 µM; in assay [5] it was 2.28 µM; in assay [6], 3.03 µM. The GI50 in [7] is 3.15 µM; in assay [8], 3.57 µM; in assay [9], 1.84 µM; in assay [10] it was 6.45 µM. For the same compound, the TGI in assay [1] worked out at 24.9 µM; in [2], 24.2 µM; in assay [3], 3.81 µM; in assay [4], 24.2 µM; in [5], 11.7 µM; in assay [6], 11.3 µM. In addition, the TGI in [7] came out at 10.6 µM; in assay [8], 13.7 µM; in assay [9], 47 µM; in [10] it was 20.8 µM.
